# Laboratory results published in paper PMC8699718, “A structurally conserved site in AUP1 binds the E2 enzyme UBE2G2 and is essential for ER-associated degradation” (PLoS Biology, 2021).
# Ends that are not written are not given here.
# System: UBE2G2
# Assay: CHX chase: UBE2G2 turnover in HT1080 AUP1 KO cells
# Type: cell-based, human
# Details: GFP fusion transfected with MYC-UBE2G2, HT1080 AUP1 KO, compared with GFP-SCR
# Procedure: Fig 7 G2BR^AUP1 protects UBE2G2 from degradation. (A) Indicated cells were assessed for steady state levels and turnover of endogenous UBE2G2 by CHX chase. (B) Transcript levels of endogenous UBE2G2 in AUP1 KO cells compared to HT1080 as determined by qPCR. Mean and standard deviation from three independent experiments is shown. […] (D) AUP1 KO cells were transfected with plasmids encoding MYC-UBE2G2 and GFP fusions of either a scrambled G2BR (SCR), G2BR^gp78, or G2BR^AUP1, and the turnover of UBE2G2 was assessed. (E) Relative abundance of gp78 (left panel) and AUP1 (right panel) in HT1080 cells was determined by resolving indicated amounts (in pmoles) of purified GST-gp78 (aa 429 to 611) or GST-AUP1 (aa 61 to 410) fusions alongside approximately 1 × 10^4 cellular equivalents of cell lysate and immunoblotting with gp78 or AUP1 antibodies. For each antibody, the amount of immunoreactivity in the lysate was compared to a defined quantity of a GST fusion protein of gp78 or AUP1 spanning the epitope recognized by the probing antibody. […] The data underlying this figure can be found in S1 and S8 Data. aa, amino acid; AUP1, ancient ubiquitous protein 1; CHX, cycloheximide; G2BR, UBE2G2 Binding Region; KO, knockout; qPCR, quantitative polymerase chain reaction; WT, wild type. […]
substance,measurement,value
"GFP-G2BR^AUP1: GFP fusion of AUP1 aa 378 to 404 (SSWARQESLQERKQALYEYARRRFTER; also: GFP fusion; UniProt Q9Y679 378-404, looked up, fragment)",UBE2G2 degradation and steady state level,protected UBE2G2 from degradation and increased the steady state level of this E2
